Results on one molecule are retold here after patent US9439839B2, “Cosmetic solution, method for producing cosmetic solution, and cosmetic method” (priority 2011, dated 2016).

SMILES strings stand for the structures.

The test is described as follows: evaluation of moisturizing power with oil water content measuring apparatus. In kind it is in vivo. The note with it: cosmetic solution diluted twice by water, applied to forearm flexor side; compared with propylene glycol and 1,3-butylene glycol. The text has this:
For the evaluation of moisturizing power, an oil water content measuring apparatus (WSK-P500U manufactured by Wave Cyber) was used. This measuring apparatus indicates the water content of the part of the skin to be measured by a relative value of 0 to 99. The part to be measured was the forearm flexor side.

Take `OCC(O)CO` [glycerin]: the moisturizing power result is on record as “highest moisturizing power”.
